Source: patent publication USRE47689E1, “Compounds for treating spinal muscular atrophy” (PTC Therapeutics, Inc., priority 2011, dated 2019)

Experiments:
[1] = system: SMN2 minigene (full length SMN2 minigene mRNA containing SMN2 exon 7); test: SMN2 minigene mRNA splicing RT-qPCR assay in cultured cells; type: cell-based, human; conditions: Homo sapiens, HEK293-H; HEK293H cells stably transfected with SMN2-A minigene; 24 hours; 7-point concentration curve; 1.5-fold relative to vehicle-treated cells; read-out: EC1.5x for production of full length SMN2 mRNA
Method in brief: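 Lysates → one-step RT-qPCR, minigene-specific primers (0.4 μM final) + GAPDH multiplex, 40 cycles. FL/GAPDH vs DMSO; EC1.5x, star-binned.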

Smn protein = Smn protein assay in cultured cells (SMN HTRF); type: cell-based, human; conditions: 48 hours; for maximum fold (Fold) increase of Smn protein: SMA patient fibroblast cells, 7-point concentration data, fold increase relative to vehicle control (SMN HTRF); for EC1.5x (concentration giving 1.5-fold Smn protein increase): SMA Type 1 patient fibroblast cells (GM03813), 7-point concentration curve, SMN HTRF, concentration producing 1.5 times Smn protein vs DMSO vehicle control, read-out: EC1.5x for Smn protein expression
Method in brief: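 Smn in SMA fibroblast lysates, measured by anti-SMN HTRF after 48 h compound exposure; EC1.5x from fold change over vehicle.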

SMILES | melting point | EC (1.5-fold) [1] | maximum fold (Fold) increase of Smn protein (Smn protein) | EC1.5x (concentration giving 1.5-fold Smn protein increase) (Smn protein)
CC(C)N1CCN(c2ccc3cc(-c4cc5ccccn5n4)c(=O)oc3c2)CC1 [Compound 196, 7-[4-(propan-2-yl)piperazin-1-yl]-3-(pyrazolo[1,5-a]pyridin-2-yl)-2H-chromen-2-one] | 243 to 246 °C | 1 to 3 µM | * (maximum fold increase of ≤1.2) | –
CN1CCN(c2ccc3cc(-c4cc5ccccn5n4)c(=O)oc3c2)CC1 [Compound 188, 7-(4-methylpiperazin-1-yl)-3-(pyrazolo[1,5-a]pyridin-2-yl)-2H-chromen-2-one] | 235 to 237 °C | 0.3 to 1 µM | *** (fold increase between >1.35 and ≤1.5) | 3000 to 10000 nM
COc1ccc(-c2cc3c(F)cc(N4CCN[C@@H](C)C4)cc3oc2=O)cc1OC [Compound 464, 3-(3,4-dimethoxyphenyl)-5-fluoro-7-[(3S)-3-methylpiperazin-1-yl]-2H-chromen-2-one] | 118 to 120 °C | 0.1 to 0.3 µM | *** (fold increase between >1.35 and ≤1.5) | –
COc1ccc(-c2cc3ccc(N4CCN[C@H](C)C4)cc3oc2=O)cc1OC [Compound 382, 3-(3,4-dimethoxyphenyl)-7-[(3R)-3-methylpiperazin-1-yl]-2H-chromen-2-one] | 143 to 145 °C | 1 to 3 µM | * (maximum fold increase of ≤1.2) | –
CCN(CC)CCc1ccc2cc(-c3cn4cc(C)nc(C)c4n3)c(=O)oc2c1 [Compound 968, 7-[2-(diethylamino)ethyl]-3-(6,8-dimethylimidazo[1,2-a]pyrazin-2-yl)-2H-chromen-2-one] | 190 to 193 °C | < 0.1 µM | ***** (fold increase >1.65) | < 300 nM
C[C@@H]1CN(c2ccc3cc(-c4ccc5c(c4)OCCO5)c(=O)oc3c2)C[C@H](C)N1 [Compound 514, 3-(2,3-dihydro-1,4-benzodioxin-6-yl)-7-[(3R,5S)-3,5-dimethylpiperazin-1-yl]-2H-chromen-2-one] | 138 to 140 °C | 3 to 30 µM | * (maximum fold increase of ≤1.2) | –
O=c1oc2cc(N3CCN(CCO)CC3)ccc2cc1-c1cc2ccccn2n1 [Compound 190, 7-[4-(2-hydroxyethyl)piperazin-1-yl]-3-(pyrazolo[1,5-a]pyridin-2-yl)-2H-chromen-2-one] | 201 to 205 °C | 1 to 3 µM | ** (fold increase between >1.2 and ≤1.35) | –
CN1CCCN(c2cc(F)c3cc(-c4cc(F)cc(F)c4)c(=O)oc3c2)CC1 [Compound 365, 3-(3,5-difluorophenyl)-5-fluoro-7-(4-methyl-1,4-diazepan-1-yl)-2H-chromen-2-one] | 161 to 164 °C | 1 to 3 µM | * (maximum fold increase of ≤1.2) | –
CN1CCN(c2cc(F)c3cc(-c4cn5ccccc5n4)c(=O)oc3c2)CC1 [Compound 422, 5-fluoro-3-(imidazo[1,2-a]pyridin-2-yl)-7-(4-methylpiperazin-1-yl)-2H-chromen-2-one] | 263 to 269 °C | 0.3 to 1 µM | ** (fold increase between >1.2 and ≤1.35) | –
Cc1cc2cc(-c3cc4ccc(N5CCN(C)[C@H](C)C5)cc4oc3=O)oc2c(C)n1 [Compound 807, 3-(5,7-dimethylfuro[2,3-c]pyridin-2-yl)-7-[(3R)-3,4-dimethylpiperazin-1-yl]-2H-chromen-2-one] | 199 to 204 °C | < 0.1 µM | ***** (fold increase >1.65) | < 300 nM
CCCN1CCN(c2ccc3cc(-c4cc5cc(C)ccn5n4)c(=O)oc3c2)CC1 [Compound 308, 3-(5-methylpyrazolo[1,5-a]pyridin-2-yl)-7-(4-propylpiperazin-1-yl)-2H-chromen-2-one] | 228 to 230 °C | 3 to 30 µM | ** (fold increase between >1.2 and ≤1.35) | –

Continued, in another order:

melting point | SMILES | EC (1.5-fold) [1] | maximum fold (Fold) increase of Smn protein (Smn protein) | EC1.5x (concentration giving 1.5-fold Smn protein increase) (Smn protein)
254 to 258 °C | Cc1cn2cc(-c3cc4ccc(O[C@@H]5CCNC5)cc4oc3=O)nc2cn1 [Compound 594, 3-(6-methylimidazo[1,2-a]pyrazin-2-yl)-7-[(3R)-pyrrolidin-3-yloxy]-2H-chromen-2-one] | < 0.1 µM | ***** (fold increase >1.65) | < 300 nM
182 to 184 °C | Cc1cn2cc(-c3cc4ccc(N(C)C5CCN(C)C5)cc4oc3=O)nc2c(C)n1 (centres unmarked) [Compound 615, 3-(6,8-dimethylimidazo[1,2-a]pyrazin-2-yl)-7-[methyl(1-methylpyrrolidin-3-yl)amino]-2H-chromen-2-one] | < 0.1 µM | **** (fold increase between >1.5 and ≤1.65) | < 300 nM
212 to 216 °C | Cc1nccn2cc(-c3cc4ccc(N5CCCNCC5)cc4oc3=O)nc12 [Compound 572, 7-(1,4-diazepan-1-yl)-3-(8-methylimidazo[1,2-a]pyrazin-2-yl)-2H-chromen-2-one] | 0.1 to 0.3 µM | **** (fold increase between >1.5 and ≤1.65) | 300 to 1000 nM
256 to 264 °C | Cc1cn2cc(-c3cc4ccc(N5C[C@H]6CN(C)C[C@H]6C5)cc4oc3=O)nc2c(C)n1 [Compound 688, 3-(6,8-dimethylimidazo[1,2-a]pyrazin-2-yl)-7-[(3aR,6aS)-5-methylhexahydropyrrolo[3,4-c]pyrrol-2(1H)-yl]-2H-chromen-2-one] | < 0.1 µM | ***** (fold increase >1.65) | < 300 nM
202 to 205 °C | COc1cccn2cc(-c3cc4ccc(N5CCN(C)CC5)cc4oc3=O)nc12 [Compound 403, 3-(8-methoxyimidazo[1,2-a]pyridin-2-yl)-7-(4-methylpiperazin-1-yl)-2H-chromen-2-one] | 3 to 30 µM | * (maximum fold increase of ≤1.2) | –
184 to 186 °C | COc1cccn2cc(-c3cc4ccc(N5C[C@@H](C)N[C@@H](C)C5)cc4oc3=O)nc12 [Compound 418, 7-[(3R,5 S)-3,5-dimethylpiperazin-1-yl]-3-(8-methoxyimidazo[1,2-a]pyridin-2-yl)-2H-chromen-2-one] | 1 to 3 µM | **** (fold increase between >1.5 and ≤1.65) | 300 to 1000 nM
282 to 285 °C | C[C@H]1CN(c2ccc3cc(-c4cn5cccnc5n4)c(=O)oc3c2)CCN1 [Compound 170, 3-(imidazo[1,2-a]pyrimidin-2-yl)-7-[(3S)-3-methylpiperazin-1-yl]-2H-chromen-2-one] | 0.3 to 1 µM | ** (fold increase between >1.2 and ≤1.35) | –
266 to 269 °C | CN1CCN(c2ccc3cc(-c4cn5cc(F)ccc5n4)c(=O)oc3c2)CC1 [Compound 138, 3-(6-fluoroimidazo[1,2-a]pyridin-2-yl)-7-(4-methylpiperazin-1-yl)-2H-chromen-2-one] | 1 to 3 µM | ** (fold increase between >1.2 and ≤1.35) | –
255 to 260 °C | CN1CCCN(c2ccc3cc(-c4cn5cc(F)cc(F)c5n4)c(=O)oc3c2)CC1 [Cpd 520, 3-(6,8-difluoroimidazo[1,2-a]pyridin-2-yl)-7-(4-methyl-1,4-diazepan-1-yl)-2H-chromen-2-one] | 0.3 to 1 µM | ** (fold increase between >1.2 and ≤1.35) | –
180 to 184 °C | Cc1cn2cc(-c3cc4ccc(CCN5CCOCC5)cc4oc3=O)nc2c(C)n1 [Compound 886, 3-(6,8-dimethylimidazo[1,2-a]pyrazin-2-yl)-7-[2-(morpholin-4-yl)ethyl]-2H-chromen-2-one] | 0.3 to 1 µM | ***** (fold increase >1.65) | 300 to 1000 nM
182 to 184 °C | Cc1cn2cc(-c3cc4ccc(N5CCN6CCC[C@H]6C5)cc4oc3=O)cc2cn1 [Compound 643, 7-[(8aS)-hexahydropyrrolo[1,2-a]pyrazin-2(1H)-yl]-3-(3-methylpyrrolo[1,2-a]pyrazin-7-yl)-2H-chromen-2-one] | < 0.1 µM | **** (fold increase between >1.5 and ≤1.65) | < 300 nM
252 to 254 °C | CN1CCCN(c2ccc3cc(-c4cn5cccnc5n4)c(=O)oc3c2)CC1 [Compound 118, 3-(imidazo[1,2-a]pyrimidin-2-yl)-7-(4-methyl-1,4-diazepan-1-yl)-2H-chromen-2-one] | 0.1 to 0.3 µM | ***** (fold increase >1.65) | < 300 nM
